Reference: US5661182A, “Method for lowering oxygen affinity of hemoglobin in redcell suspensions, in whole blood and in vivo” (Virginia Commonwealth University, priority 1995, dated 1997)
“Also recorded” adds a separate entry of the source.

Biological target: stored human RBCs (Homo sapiens, UniProt P68871+P69905)
Assay: Outdated blood studies: oxygen dissociation curves of stored red blood cells
Type: cell-based
Settings: for p50 / ΔY [Y(90%)-Y(40%)]: 40-day-old stored human RBCs
Description: Outdated Blood Studies. For the outdated blood studies, 40-day-old packed red cells (80% hematocrit) were obtained from the blood bank at the Medical College of Virginia, Richmond, Va. The cells had been stored in Adsol formulation at 1°-4° C., pH 6.84. Fresh red cells obtained from volunteers were used for the control studies in Table III. The fresh red blood cells were centrifuged and washed with saline, pH 6.8. The oxygen dissociation curves were recorded on an Aminco Hem-O-Scan (Travenol Laboratories).
Outdated Blood Studies. The capability of RSR-13 to restore the oxygen affinity of stored blood was investigated. The procedure involved measurement of the oxygen equilibrium curves on red cell suspensions, which were stored in Adsol formulations at 4° C., in either the absence (controls) or presence of RSR-13. Table 3 presents the p50 (mmHg) and ΔY (%) [Y(90%)-Y(40%)] for outdated red blood cell suspensions (forty days) in the presence or absence of RSR-13.

Sequence of stored human RBCs (P69905 whole entry): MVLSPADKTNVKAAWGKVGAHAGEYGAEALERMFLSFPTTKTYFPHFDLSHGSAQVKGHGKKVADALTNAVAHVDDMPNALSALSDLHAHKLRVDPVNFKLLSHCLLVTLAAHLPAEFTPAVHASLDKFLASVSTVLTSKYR
Sequence of stored human RBCs (P68871 whole entry): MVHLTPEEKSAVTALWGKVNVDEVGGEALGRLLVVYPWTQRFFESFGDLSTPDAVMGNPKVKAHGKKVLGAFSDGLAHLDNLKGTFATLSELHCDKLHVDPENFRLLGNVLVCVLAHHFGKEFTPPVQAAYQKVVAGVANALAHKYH

SMILES: Cc1cc(C)cc(NC(=O)Cc2ccc(OC(C)(C)C(=O)O)cc2)c1 [RSR-13]
- pH of RBC solution versus untreated samples (4 mM): higher than that of untreated samples
- restoration / preservation of oxygen transport capabilities (40-day-old RBC, 1 mM, or added prior to measurements or during storage): able to restore, to near normal the oxygen transport capabilities (p50 and ΔY) of 40-day-old red blood cells; also recorded: preserved the oxygen delivery capabilities of red cell hemoglobin
- p50 (1 mM): 39 mm Hg
- ΔY [Y(90%)-Y(40%)] (1 mM): 37%
- p50 (2 mM): 45 mm Hg
- ΔY [Y(90%)-Y(40%)] (2 mM): 40%
- hemolysis (stored human red cells, end of experiments): no indication of hemolysis
